Results: ChEMBL document CHEMBL1201862, “PubChem BioAssay data set” (2004)
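These data come from cells grown in 96-well plates and exposed to compound for 48 hours at five concentrations. The concentration for 50% growth inhibition is given as GI50.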 Activity calls are given as the source filed them. Cut-off read from the data, not from the text of the source: active = GI50 up to about 1.1 µM and inactive = higher.

Key:
Experiment in all cases: growth of human tumour cells (NCI), 48 h
[1] = system: 786-0
[2] = system: A498
[3] = system: A549
[4] = system: ACHN
[5] = system: CAKI-1
[6] = system: CCRF-CEM
[7] = system: COLO 205
[8] = system: DLD-1
[9] = system: DMS-114
[10] = system: DMS-273
[11] = system: EKVX
[12] = system: HCC 2998
[13] = system: HCT-116
[14] = system: HL-60
[15] = system: HOP-18
[16] = system: HOP-62
[17] = system: HOP-92
[18] = system: HT-29
[19] = system: IGROV-1
[20] = system: K562
[21] = system: KM-20L2
[22] = system: KM12
[23] = system: LOX IMVI
[24] = system: LXFL 529
[25] = system: M14
[26] = system: MOLT-4
[27] = system: Malme-3M
[28] = system: NCI-H226
[29] = system: NCI-H23
[30] = system: NCI-H460
[31] = system: NCI-H522
[32] = system: OVCAR-3
[33] = system: OVCAR-4
[34] = system: OVCAR-5
[35] = system: OVCAR-8
[36] = system: RPMI-8226
[37] = system: RXF 393
[38] = system: SF-268
[39] = system: SF-295
[40] = system: SF-539
[41] = system: SK-MEL-28
[42] = system: SK-MEL-2
[43] = system: SK-OV-3
[44] = system: SN12C
[45] = system: SNB-19
[46] = system: SNB-75
[47] = system: SNB-78
[48] = system: SR
[49] = system: SW-620
[50] = system: TK-10
[51] = system: U-251
[52] = system: UACC-257
[53] = system: UACC-62
[54] = system: UO-31
[55] = system: XF498
[56] = system: HCT-15
[57] = system: M19-MEL
[58] = system: SK-MEL-5

Measured: GI50

COc1cc(CCC(=O)NS(=O)(=O)c2ccccc2)cc(OC)c1OC
inactive: [1] > 100 µM | [2] > 100 µM | [3] > 100 µM | [4] > 100 µM | [5] > 100 µM | [6] > 100 µM | [7] > 100 µM | [8] > 100 µM | [9] > 100 µM | [10] > 100 µM | [11] > 100 µM | [12] > 100 µM | [13] > 100 µM | [14] > 100 µM | [15] 72.6 µM | [16] > 100 µM | [17] > 100 µM | [18] > 100 µM | [19] > 100 µM | [20] > 100 µM | [21] > 100 µM | [22] > 100 µM | [23] > 100 µM | [24] > 100 µM | [25] > 100 µM | [26] > 100 µM | [27] > 100 µM | [28] > 100 µM | [29] > 100 µM | [30] > 100 µM | [31] > 100 µM | [32] > 100 µM | [33] > 100 µM | [34] > 100 µM | [35] > 100 µM | [36] > 100 µM | [37] > 100 µM | [38] > 100 µM | [39] > 100 µM | [40] > 100 µM | [41] > 100 µM | [42] > 100 µM | [43] > 100 µM | [44] > 100 µM | [45] > 100 µM | [46] 61.4 µM | [47] > 100 µM | [48] > 100 µM | [49] > 100 µM | [50] > 100 µM | [51] > 100 µM | [52] > 100 µM | [53] > 100 µM | [54] > 100 µM | [55] > 100 µM

Nc1c(-c2ccc(-c3c(N)[n+]([O-])c4ccccc4[n+]3[O-])cc2)[n+]([O-])c2ccccc2[n+]1[O-]
3.92 µM: [56]
inactive: [1] 13.5 µM | [2] 18.3 µM | [3] 20.9 µM | [4] 16.2 µM | [5] 6.65 µM | [6] 38.7 µM | [7] 10.1 µM | [8] 11.8 µM | [9] 3.4 µM | [10] 14.2 µM | [11] 31.8 µM | [12] 15.1 µM | [14] 13.9 µM | [15] 7.67 µM | [16] 17.8 µM | [17] > 100 µM | [18] 12.1 µM | [19] 17.7 µM | [20] 15.7 µM | [21] > 10 µM | [22] 11.1 µM | [23] 9.75 µM | [24] 7.87 µM | [25] 12.2 µM | [57] 11.3 µM | [26] 33.3 µM | [27] 3.02 µM | [28] 20.6 µM | [29] 6.21 µM | [30] 14.3 µM | [31] 1.6 µM | [32] 15.7 µM | [33] 17.7 µM | [34] 20.5 µM | [35] 18.9 µM | [36] 23.8 µM | [38] 17.2 µM | [39] 16 µM | [40] 4.92 µM | [41] 5.73 µM | [42] 13.7 µM | [58] 10.1 µM | [43] 24.9 µM | [44] 11.7 µM | [45] 13.7 µM | [46] 8.15 µM | [47] 8.39 µM | [49] 4.5 µM | [50] 17.6 µM | [51] 14.7 µM | [52] 3.47 µM | [53] 10.2 µM | [54] 16.4 µM | [55] 11.5 µM

NS(=O)(=O)c1cc2c(cc1Cl)NC(C(=O)c1cc(=O)c3ccc(O)cc3o1)=NS2(=O)=O
> 100 µM: [56]
inactive: [1] > 100 µM | [2] > 100 µM | [3] > 100 µM | [4] > 100 µM | [5] > 100 µM | [6] > 100 µM | [7] > 100 µM | [8] > 100 µM | [9] > 100 µM | [10] > 100 µM | [11] > 100 µM | [12] > 100 µM | [13] > 100 µM | [14] > 100 µM | [15] > 100 µM | [16] > 100 µM | [17] > 100 µM | [18] > 100 µM | [19] > 100 µM | [20] > 100 µM | [21] > 100 µM | [22] > 100 µM | [23] > 100 µM | [25] > 100 µM | [57] > 100 µM | [26] > 100 µM | [27] > 100 µM | [28] > 100 µM | [29] > 100 µM | [30] > 100 µM | [31] > 100 µM | [32] > 100 µM | [33] > 100 µM | [34] > 100 µM | [35] > 100 µM | [36] > 100 µM | [37] > 100 µM | [38] > 100 µM | [39] > 100 µM | [40] > 100 µM | [41] > 100 µM | [42] > 100 µM | [58] > 100 µM | [43] > 100 µM | [44] > 100 µM | [45] > 100 µM | [46] 97.7 µM | [47] > 100 µM | [48] > 100 µM | [49] > 100 µM | [50] > 100 µM | [51] > 100 µM | [52] > 100 µM | [53] > 100 µM | [54] > 100 µM | [55] > 100 µM

Nc1nc(N)c(N=O)c(Nc2ccc(Br)cc2)n1
15.3 µM: [56]
inactive: [1] 28.7 µM | [2] 17.6 µM | [3] 41.9 µM | [4] 6.58 µM | [5] 29.4 µM | [6] 18.2 µM | [7] 19.9 µM | [8] 10.4 µM | [9] 21.8 µM | [10] 17.5 µM | [11] 40.8 µM | [12] 78.9 µM | [13] 13.3 µM | [14] > 100 µM | [15] 11.2 µM | [16] 14.6 µM | [17] 15.4 µM | [18] 15.8 µM | [19] 3.46 µM | [20] > 100 µM | [21] 25.3 µM | [22] 33.8 µM | [23] 18.2 µM | [24] 15.3 µM | [25] 16.2 µM | [57] 30.5 µM | [27] 13.3 µM | [28] 32.2 µM | [29] 23.4 µM | [30] 26.5 µM | [31] 17.9 µM | [32] 13.1 µM | [33] 48 µM | [34] 31.2 µM | [35] 27.2 µM | [38] 12.9 µM | [39] 29 µM | [40] 16.9 µM | [41] 16.6 µM | [42] 21.4 µM | [43] 32.4 µM | [44] 17.8 µM | [45] 45.1 µM | [46] 10.4 µM | [47] 41.5 µM | [48] > 100 µM | [49] 33.5 µM | [50] 29.1 µM | [51] 15.9 µM | [52] 15.6 µM | [53] 5.5 µM | [55] 18.8 µM

O=C1OC(=O)C2C3CCC(O3)C12 (configuration not stated)
inactive: [1] > 100 µM | [2] > 100 µM | [3] > 100 µM | [4] > 100 µM | [5] > 100 µM | [6] > 100 µM | [7] > 100 µM | [8] > 100 µM | [9] > 100 µM | [10] > 100 µM | [11] > 100 µM | [12] > 100 µM | [13] > 100 µM | [14] > 100 µM | [15] > 100 µM | [16] > 100 µM | [17] > 100 µM | [18] > 100 µM | [19] > 100 µM | [20] > 100 µM | [22] > 100 µM | [24] > 100 µM | [25] > 100 µM | [57] > 100 µM | [26] > 100 µM | [27] > 100 µM | [28] > 100 µM | [29] > 100 µM | [30] > 100 µM | [32] > 100 µM | [34] > 100 µM | [35] > 100 µM | [36] > 100 µM | [37] > 100 µM | [38] > 100 µM | [39] > 100 µM | [40] > 100 µM | [41] > 100 µM | [42] > 100 µM | [58] > 100 µM | [43] > 100 µM | [44] > 100 µM | [45] > 100 µM | [47] > 100 µM | [48] > 100 µM | [49] > 100 µM | [50] > 100 µM | [51] > 100 µM | [52] > 100 µM | [53] > 100 µM | [54] > 100 µM | [55] > 100 µM
